# Source: paper PMC9996622 (ACS Omega, 2023)
# Target: T1, DnaE1 (Mycobacterium tuberculosis, UniProt P9WNT7)
# T1 sequence (P9WNT7 1-1184): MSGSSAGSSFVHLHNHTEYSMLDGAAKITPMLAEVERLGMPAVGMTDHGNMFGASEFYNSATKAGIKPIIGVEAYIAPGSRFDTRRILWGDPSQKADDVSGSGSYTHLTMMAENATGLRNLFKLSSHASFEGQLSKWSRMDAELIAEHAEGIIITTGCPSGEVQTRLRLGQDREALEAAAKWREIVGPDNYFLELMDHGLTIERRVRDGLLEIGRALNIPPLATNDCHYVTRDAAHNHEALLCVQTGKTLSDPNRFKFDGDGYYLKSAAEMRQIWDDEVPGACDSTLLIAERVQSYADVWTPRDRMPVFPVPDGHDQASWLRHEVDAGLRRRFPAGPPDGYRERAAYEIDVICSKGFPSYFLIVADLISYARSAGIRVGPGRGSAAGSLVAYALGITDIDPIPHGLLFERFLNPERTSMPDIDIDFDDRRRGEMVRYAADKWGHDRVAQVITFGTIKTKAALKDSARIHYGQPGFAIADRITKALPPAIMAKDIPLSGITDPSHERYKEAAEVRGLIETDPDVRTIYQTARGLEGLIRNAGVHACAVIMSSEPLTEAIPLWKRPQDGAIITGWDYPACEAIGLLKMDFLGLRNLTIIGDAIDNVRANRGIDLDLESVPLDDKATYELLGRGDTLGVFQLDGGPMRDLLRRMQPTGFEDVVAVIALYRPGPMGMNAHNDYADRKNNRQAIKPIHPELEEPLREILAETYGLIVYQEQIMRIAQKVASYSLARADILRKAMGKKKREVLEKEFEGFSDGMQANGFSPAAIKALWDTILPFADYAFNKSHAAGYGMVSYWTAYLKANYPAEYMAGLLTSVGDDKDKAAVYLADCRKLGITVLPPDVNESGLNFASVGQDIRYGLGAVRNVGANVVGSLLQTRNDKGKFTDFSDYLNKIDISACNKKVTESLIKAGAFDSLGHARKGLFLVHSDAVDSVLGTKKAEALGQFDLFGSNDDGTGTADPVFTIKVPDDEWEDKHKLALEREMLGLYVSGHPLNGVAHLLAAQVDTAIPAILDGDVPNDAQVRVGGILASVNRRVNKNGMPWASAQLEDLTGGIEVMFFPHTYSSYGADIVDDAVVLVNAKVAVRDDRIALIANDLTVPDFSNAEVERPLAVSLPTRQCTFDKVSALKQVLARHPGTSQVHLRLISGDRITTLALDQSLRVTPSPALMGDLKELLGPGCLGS
# Test: 2-aminopurine fluorescence exonuclease assay, dose-response
# Format: biochemical
smiles,measurement,value
OC[C@H]1O[C@@H](n2cnc3c(S)ncnc32)[C@H](O)[C@@H]1O [6-thioinosine],IC50,64 µM
